One experiment deals with T1, human CB2 receptor (Homo sapiens, UniProt P34972).
T1 construct: host or cells: CHO-K1 (Chinese hamster ovary) cells, stably transfected; membranes prepared in house
As to the kind of experiment: CB2 radioligand competitive binding assay ([3H]CP 55,940 displacement). To be noted: for Selectivity CB2: fold difference in binding between CB1 and CB2, shown in column of receptor with higher affinity, 1.00 in both = about the same affinity. As for the experimental part: Compounds of the present disclosure were tested for CB1 receptor binding affinity and for CB2 receptor binding affinity. As used herein, “binding affinity” is represented by the IC50 value, which was experimentally determined as described herein. The lower the IC50 value the higher the binding affinity.
The membranes were prepared from CHO-K1 (Chinese hamster ovary) cells stably transfected with the human CB2 receptor (Cat. #ES-111-C; Perkin Elmer, Boston, MA). The cells were grown adherently and maintained in Ham's F12 medium containing 10% fetal bovine serum (FBS), penicillin, streptomycin and geneticin (G418) at 37° C. in a humid atmosphere of 5% CO2 following the manufacturer's instructions.
For membrane preparation the cells were washed with PBS and scraped off the plates in cold homogenization buffer (25 mM HEPES (pH 7.4), 2 mM EDTA) containing protease inhibitor cocktail (Sigma Cat. #P8340). The cell suspension was homogenized with a Pro-PK-01200D Polytron Homogenizer (Pro Scientific) and then centrifuged for 30 min at 120,000×g. The supernatant was discarded and the pellet was re-suspended in the homogenization buffer and stored at −80° C. until the time of use.
In this experiment, 3H radiolabeled CP 55,940, i.e. [3H]CP 55,940 (Perkin Elmer, Boston, MA), was used as a radioligand for the CB2 receptor to determine the binding affinity of compounds for the CB2 receptor (Scheme 3; above).
The competition binding experiments (single dose and dose-response) were performed by incubating 0.6 nM of [3H]CP55,940 (specific activity 101 Ci/mmol, Perkin Elmer) and different concentrations of compounds disclosed herein with membranes prepared as above from CHO-K1 cells expressing human CB2 receptor (1 μg of protein/well), 50 mM Tris-HCl (pH 7.4), 5 mM MgCl2, 1 mM CaCl2, and 2 mg/mL BSA.
For the dose-response experiments the test compounds were sequentially diluted to provide the desired concentration range for the IC50 determination. In each case the compounds were pre-incubated with the membrane for 20 min, before adding the radioligand.
After incubation with the radioligand for 60 min at 37° C., the incubation was terminated by rapid filtration of assay mixture through MultiScreen®HTS^+ 96-well filter plates (Millipore, Cat. #MSFCNXB), pre-soaked for 60 min with 50 mM Tris-HCl (pH 7.4) containing 0.33% polyethylenimine (PEI). The nonspecific binding (NSB) was determined in the presence of 10 μM unlabelled CP55,940. After drying the filter plate at 50° C. for at least 60 min, the filter-bound radioactivity was determined by scintillation spectrometry using the 1450 MicroBeta Plate Counter (Perkin Elmer, Boston, MA).

The next experiment has as its target T2, human CB1 receptor (Homo sapiens, UniProt P21554).
T2 construct: host or cells: CHO-K1 (Chinese hamster ovary) cells, stably transfected; membranes prepared in house
The experiment can be described thus: CB1 radioligand competitive binding assay ([3H]CP 55,940 displacement).

This note sets out measurements from patent US12325709B2, “Cannabinoid derivatives” (CANOPY GROWTH CORPORATION, priority 2019, dated 2025).

Some results are limits rather than exact numbers.

T2 sequence (P21554 whole entry): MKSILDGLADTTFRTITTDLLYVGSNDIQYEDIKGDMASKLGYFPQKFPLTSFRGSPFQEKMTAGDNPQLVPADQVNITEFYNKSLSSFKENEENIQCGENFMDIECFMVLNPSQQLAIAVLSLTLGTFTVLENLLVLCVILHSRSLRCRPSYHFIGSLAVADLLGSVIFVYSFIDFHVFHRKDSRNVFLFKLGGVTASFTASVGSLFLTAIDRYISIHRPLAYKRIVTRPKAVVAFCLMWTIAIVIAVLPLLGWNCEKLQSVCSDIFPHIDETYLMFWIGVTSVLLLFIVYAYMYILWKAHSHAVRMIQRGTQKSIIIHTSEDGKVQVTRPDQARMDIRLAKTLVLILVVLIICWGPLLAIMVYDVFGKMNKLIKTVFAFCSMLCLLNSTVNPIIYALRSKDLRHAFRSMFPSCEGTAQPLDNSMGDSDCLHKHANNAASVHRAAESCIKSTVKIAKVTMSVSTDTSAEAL
T1 sequence (P34972 whole entry): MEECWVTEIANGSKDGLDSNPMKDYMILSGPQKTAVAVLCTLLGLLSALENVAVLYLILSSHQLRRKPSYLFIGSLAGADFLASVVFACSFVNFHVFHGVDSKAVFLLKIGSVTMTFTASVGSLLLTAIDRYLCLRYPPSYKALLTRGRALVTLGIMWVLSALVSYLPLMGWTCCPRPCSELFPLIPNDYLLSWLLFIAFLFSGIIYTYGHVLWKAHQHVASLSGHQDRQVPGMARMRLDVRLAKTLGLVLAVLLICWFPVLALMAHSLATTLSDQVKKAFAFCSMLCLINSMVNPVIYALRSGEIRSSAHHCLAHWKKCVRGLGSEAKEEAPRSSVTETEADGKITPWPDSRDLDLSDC

As to `C=C(C)[C@@H]1CCC(C)=C[C@H]1c1c(O)cc(CCCCC)c(C(=O)NCc2cccnc2)c1O` [Compound 15d, 2,6-dihydroxy-5′-methyl-4-pentyl-2′-(prop-1-en-2-yl)-N-(pyridin-3-ylmethyl)-1′,2′,3′,4′-tetrahydro-[1,1′-biphenyl]-3-carboxamide], the IC50 at human CB2 receptor and on human CB1 receptor was 100 to 990 nM throughout. Also, at human CB1 receptor (fold difference in binding between CB1 and CB2, shown in column of receptor with higher affinity, 1.00 in both = about the same affinity), the “Selectivity CB1” value was found to be 2.48 fold.
On to `C=C(C)[C@@H]1CCC(C)=C[C@H]1c1c(O)cc(CCCCC)c(C(=O)N2CCOCC2)c1O` [Compound 39d, (2,6-dihydroxy-5′-methyl-4-pentyl-2′-(prop-1-en-2-yl)-1′,2′,3′,4′-tetrahydro-[1,1′-biphenyl]-3-yl)(morpholino)methanone], for which, on human CB2 receptor, the concentration for half-maximal inhibition (IC50) (usually the midpoint of a concentration-inhibition curve) fell in the range of 1000 to 4990 nM and the “Selectivity CB2” value is 3.49 fold. This molecule yielded an IC50 on human CB1 receptor above 5000 nM.
Take `C=C(C)[C@@H]1CCC(C)=C[C@H]1c1c(O)cc(CCCCC)c(C(=O)NC2CC2)c1O` [Compound 6d, N-cyclopropyl-2,6-dihydroxy-5′-methyl-4-pentyl-2′-(prop-1-en-2-yl)-1′,2′,3′,4′-tetrahydro-[1,1′-biphenyl]-3-carboxamide]: on human CB2 receptor, the IC50 fell in the range of 1000 to 4990 nM and the “Selectivity CB2” value was found to be 9.09 fold. Moreover, the concentration for half-maximal inhibition (IC50) on human CB1 receptor is above 5000 nM.
In the same order, the values of `C=CCNC(=O)c1c(CCCCC)cc(O)c(C2C=C(C)CCC2)c1O` (stereo not drawn) [Compound 25c, N-allyl-2,6-dihydroxy-5′-methyl-4-pentyl-1′,2′,3′,4′-tetrahydro-[1,1′-biphenyl]-3-carboxamide] are 100 to 990 nM, 16.53 fold and 1000 to 4990 nM.
